Assay: wn = mass fraction of the nth substance listed
Conditions: Liquid, Vibrating tube method

CC(C)(N)CO [2-amino-2-methylpropan-1-ol] + O
Conditions	mass density [kg/m3]
352.85 K, 12992 kPa, w1 = 0.2821	967.1
352.85 K, 13990 kPa, w1 = 0.2821	967.5
352.85 K, 14990 kPa, w1 = 0.2821	968
352.85 K, 15988 kPa, w1 = 0.2821	968.4
352.85 K, 16991 kPa, w1 = 0.2821	968.8
352.85 K, 17991 kPa, w1 = 0.2821	969.2
352.85 K, 18988 kPa, w1 = 0.2821	969.6
352.85 K, 19987 kPa, w1 = 0.2821	970.1
352.85 K, 20985 kPa, w1 = 0.2821	970.5
352.86 K, 500 kPa, w1 = 0.1997	965
352.86 K, 1000 kPa, w1 = 0.1997	965.2
352.86 K, 2000 kPa, w1 = 0.1997	965.7
352.86 K, 3000 kPa, w1 = 0.1997	966.2
352.86 K, 4000 kPa, w1 = 0.1997	966.5
352.86 K, 5000 kPa, w1 = 0.1997	966.9
352.86 K, 6000 kPa, w1 = 0.1997	967.3
352.86 K, 7000 kPa, w1 = 0.1997	967.8
352.86 K, 8000 kPa, w1 = 0.1997	968.2
352.86 K, 9009 kPa, w1 = 0.1997	968.6
352.86 K, 10002 kPa, w1 = 0.1997	969.1
352.86 K, 11001 kPa, w1 = 0.1997	969.5
352.86 K, 12000 kPa, w1 = 0.1997	970
352.86 K, 13000 kPa, w1 = 0.1997	970.4
352.86 K, 14000 kPa, w1 = 0.1997	970.8
352.86 K, 15003 kPa, w1 = 0.1997	971.2
352.86 K, 16001 kPa, w1 = 0.1997	971.6
352.86 K, 17001 kPa, w1 = 0.1997	972.1
352.86 K, 18002 kPa, w1 = 0.1997	972.5
352.86 K, 19001 kPa, w1 = 0.1997	972.9
352.86 K, 20029 kPa, w1 = 0.1997	973.3
352.86 K, 21004 kPa, w1 = 0.1997	973.8
352.86 K, 22004 kPa, w1 = 0.1997	974.1
352.86 K, 23000 kPa, w1 = 0.1997	974.5
352.86 K, 24004 kPa, w1 = 0.1997	975
352.87 K, 1039 kPa, w1 = 0.4976	945
352.87 K, 2018 kPa, w1 = 0.4976	945.5
352.87 K, 3005 kPa, w1 = 0.4976	946
352.87 K, 4018 kPa, w1 = 0.4976	946.5
352.87 K, 5000 kPa, w1 = 0.4976	946.9
352.87 K, 5997 kPa, w1 = 0.4976	947.4
352.87 K, 7007 kPa, w1 = 0.4976	947.9
352.87 K, 7999 kPa, w1 = 0.4976	948.4
352.87 K, 8994 kPa, w1 = 0.4976	948.9
352.87 K, 9996 kPa, w1 = 0.4976	949.4
352.87 K, 10996 kPa, w1 = 0.4976	949.8
352.87 K, 12002 kPa, w1 = 0.4976	950.3
352.87 K, 13000 kPa, w1 = 0.4976	950.8
352.87 K, 13993 kPa, w1 = 0.4976	951.2
352.87 K, 15004 kPa, w1 = 0.4976	951.7
352.87 K, 16002 kPa, w1 = 0.4976	952.2
352.87 K, 16989 kPa, w1 = 0.4976	952.6
352.87 K, 18011 kPa, w1 = 0.4976	953.1
352.87 K, 18989 kPa, w1 = 0.4976	953.5
352.87 K, 20010 kPa, w1 = 0.4976	954
352.87 K, 20989 kPa, w1 = 0.4976	954.4
362.73 K, 999 kPa, w1 = 0.2821	954.1
362.73 K, 1015 kPa, w1 = 0.4976	936.3
362.73 K, 1999 kPa, w1 = 0.2821	954.5
362.73 K, 2010 kPa, w1 = 0.4976	936.7
362.73 K, 2998 kPa, w1 = 0.2821	955.1
362.73 K, 3022 kPa, w1 = 0.4976	937.3
362.73 K, 3996 kPa, w1 = 0.2821	955.4
362.73 K, 3997 kPa, w1 = 0.4976	937.8
362.73 K, 4996 kPa, w1 = 0.2821	955.9
362.73 K, 5010 kPa, w1 = 0.4976	938.3
362.73 K, 5993 kPa, w1 = 0.2821	956.3
362.73 K, 6002 kPa, w1 = 0.4976	938.8
362.73 K, 6993 kPa, w1 = 0.2821	956.8
362.73 K, 6999 kPa, w1 = 0.4976	939.3
362.73 K, 7992 kPa, w1 = 0.4976	939.8
362.73 K, 8006 kPa, w1 = 0.2821	957.3
362.73 K, 8992 kPa, w1 = 0.2821	957.7
362.73 K, 8997 kPa, w1 = 0.4976	940.3
362.73 K, 9994 kPa, w1 = 0.2821	958.1
362.73 K, 10028 kPa, w1 = 0.4976	940.9
362.73 K, 10990 kPa, w1 = 0.4976	941.3
362.73 K, 10992 kPa, w1 = 0.2821	958.6
362.73 K, 11992 kPa, w1 = 0.2821	959.1
362.73 K, 11996 kPa, w1 = 0.4976	941.8
362.73 K, 12991 kPa, w1 = 0.2821	959.5
362.73 K, 13002 kPa, w1 = 0.4976	942.3
362.73 K, 13992 kPa, w1 = 0.2821	959.9
362.73 K, 13994 kPa, w1 = 0.4976	942.8
362.73 K, 14986 kPa, w1 = 0.4976	943.3
362.73 K, 14988 kPa, w1 = 0.2821	960.4
362.73 K, 15987 kPa, w1 = 0.2821	960.8
362.73 K, 15995 kPa, w1 = 0.4976	943.8
362.73 K, 16985 kPa, w1 = 0.4976	944.3
362.73 K, 16990 kPa, w1 = 0.2821	961.3
362.73 K, 18007 kPa, w1 = 0.4976	944.8
362.73 K, 18019 kPa, w1 = 0.2821	961.7
362.73 K, 18985 kPa, w1 = 0.2821	962.1
362.73 K, 18989 kPa, w1 = 0.4976	945.2
362.73 K, 19985 kPa, w1 = 0.2821	962.6
362.73 K, 19988 kPa, w1 = 0.4976	945.7
362.73 K, 21004 kPa, w1 = 0.4976	946.2
362.74 K, 532 kPa, w1 = 0.1997	957.9
362.74 K, 1001 kPa, w1 = 0.1997	958
362.74 K, 1014 kPa, w1 = 0.4002	946.1
362.74 K, 1992 kPa, w1 = 0.4002	946.6
362.74 K, 2000 kPa, w1 = 0.1997	958.5
362.74 K, 3000 kPa, w1 = 0.1997	959
362.74 K, 3010 kPa, w1 = 0.4002	947.1
362.74 K, 4000 kPa, w1 = 0.1997	959.4
362.74 K, 4009 kPa, w1 = 0.4002	947.5
362.74 K, 5000 kPa, w1 = 0.1997	960.1
362.74 K, 5001 kPa, w1 = 0.4002	948
362.74 K, 6000 kPa, w1 = 0.1997	960.4
362.74 K, 6003 kPa, w1 = 0.4002	948.5
362.74 K, 6999 kPa, w1 = 0.4002	949
362.74 K, 7000 kPa, w1 = 0.1997	960.7
362.74 K, 7990 kPa, w1 = 0.4002	949.4
362.74 K, 8001 kPa, w1 = 0.1997	961.2
362.74 K, 8995 kPa, w1 = 0.4002	949.9
362.74 K, 9009 kPa, w1 = 0.1997	961.6
362.74 K, 10004 kPa, w1 = 0.1997	962.1
362.74 K, 10039 kPa, w1 = 0.4002	950.4
362.74 K, 10986 kPa, w1 = 0.4002	950.8
362.74 K, 11001 kPa, w1 = 0.1997	962.4
362.74 K, 11991 kPa, w1 = 0.4002	951.3
362.74 K, 12999 kPa, w1 = 0.4002	951.8
362.74 K, 13999 kPa, w1 = 0.4002	952.2
362.74 K, 14990 kPa, w1 = 0.4002	952.7
362.74 K, 15993 kPa, w1 = 0.4002	953.2
362.74 K, 16984 kPa, w1 = 0.4002	953.6
362.74 K, 18005 kPa, w1 = 0.4002	954.1
362.74 K, 18993 kPa, w1 = 0.4002	954.5
362.74 K, 19978 kPa, w1 = 0.4002	955
362.74 K, 21014 kPa, w1 = 0.4002	955.4

— the NIST ThermoML archive (doi:10.1021/je700406p)
